Measured values taken from article PMC9143043, “Synthesis and Biological Evaluation of 5′-O-Fatty Acyl Ester Derivatives of 3′-Fluoro-2′,3′-dideoxythymidine as Potential Anti-HIV Microbicides” (Molecules, 2022).
Entries after “also recorded” stand apart in the source; their conditions may differ. Like-named read-outs stand apart in the source and are kept apart here.

Experiments:
Type in all cases: cell-based
Cytotoxicity assay (MTS) = conditions: human, HeLa cells (ATCC CCL-2.1)
[1] = tested on: HIV-1 strain IIIB (lymphocytotropic strain); assay: Single-round infection assay, cell-free X4 virus (lymphocytotropic strain); conditions: Human immunodeficiency virus 1, IIIB
Protocol: (§1) Anti-HIV activities of the compounds were evaluated according to the previously reported procedure. In summary, the HeLa (Human cervical carcinoma: ATCC CCL-2.1) cell line was used to measure the inactivation of both the cell-free virus preparations and virus-infected cell preparations. The cells were plated in culture plates 24 h prior to each experiment. Cell-free viral preparations of HIV-1 strains IIIB (lymphocytotropic strain) and BaL (monocytotropic strain) were used for the cell-free assay. For the cell-associated assay, the SulT1 cells were infected with IIIB virus 5 days prior to the experiment. Cell-free virus and virus-infected cells were mixed with different compounds and diluted to make different concentrations. The mixture was further diluted with the buffer and added to the HeLa cells.

[2] = tested on: HIV-1 strain BaL (monocytotropic strain); assay: Single-round infection assay, cell-free R5 virus (monocytotropic strain); conditions: Human immunodeficiency virus 1, BAL
Protocol: as §1

[3] = tested on: cell-associated HIV-1 IIIB (infected SulT1 cells); assay: Cell-associated transmission assay (IIIB); conditions: for EC50: Human immunodeficiency virus 1, IIIB
Protocol: as §1

HIV-1 = assay: Anti-HIV activity overall (cell-free and cell-associated assays) and antiviral index
Description: Table 2, Table 3 and Table 4 illustrate the anti-HIV-1 activities against the cell-free, cell-associated, and multidrug-resistant virus and sperm inhibiting properties of the selected compounds. In summary, the anti-HIV activity of 5′-substituted derivatives of FLT and AZT (5–18) was dependent on the nature of the 5′-substituent. […] None of the other esters were active against cell-associated virus. […] The difference in the activity of fatty acyl derivatives of FLT compared to each other and FLT may be due to their differences in the rate of uptake and intracellular hydrolysis.
By design, the ester moiety in the conjugates needs to be hydrolyzed to render parent nucleosides and fatty acids to produce anti-HIV activity. The anti-HIV activities of 5′-O-ether substituted FLT and AZT (3 and 4, Scheme 2) with a stable tetradecanyl (myristyl) group were compared with hydrolyzable 5′-O-ester substituted FLT and AZT (6 and 7).
as §1

[4] = tested on: HIV-1 94US3393IN (B-Wild Type); assay: PBMC multi-round infection assay, clinical isolate 94US3393IN; conditions: Human immunodeficiency virus 1
Protocol: (§2) Based on a preliminary screening, conjugates 5 and 8 were evaluated for their ability to inhibit a drug-resistant virus in a peripheral blood mononuclear cell (PBMC) assay. In this assay, FLT, 5, and 8 were tested against B- and C-wild type and A-17 and 4755–5 multidrug-resistant (MDR) clinical isolates of HIV-1, where compounds were incubated with PBMCs for 6 h and then washed off before the addition of the virus and further culture for 7 days.
(§3) For the assessment of compounds against the wild type (WT; R5; clones = 94US3393IN [B subtype] and 98USMSC5016 [C subtype]) and drug-resistant (clones = 4755−5 and A17) HIV-1 clinical isolates, PHA-P stimulated cells from at least two normal donors were pooled, diluted in fresh media, and plated in the interior wells of a 96-well round-bottom microplate. Pooling PBMCs from more than one donor was used to minimize the variability observed between the individual donors, which results from the quantitative and qualitative differences in HIV infection and overall response to the PHA and IL-2 of primary lymphocyte populations. Each plate contained virus/cell control wells (cells + virus), experimental wells (drug + cells + virus), and compound control wells (drug + media, no cells, necessary for MTS monitoring of cytotoxicity). Test drug dilutions were prepared in microtiter tubes, and each concentration was placed in appropriate wells. Following the addition of the drug dilutions to the PBMCs, a predetermined dilution of virus stock was then placed in each test well (final MOI ≅ 0.1). Because HIV-1 is not cytopathic to PBMCs, the same assay plate can be used for both the antiviral efficacy and cytotoxicity measurements. Compounds were incubated with virus and cells in a 96-well format for 6 h. The cells were then washed by removing 75% of the medium (150 μL) and replacing it with 150 μL of fresh (no drug) medium. The plates were then centrifuged (∼200 g) for 10 min, after which 150 μL of the medium was removed, and an additional 150 μL of fresh medium was added to each well and further incubated for 6 days or until peak reverse transcriptase (RT) activity was detected. A microtiter plate-based RT reaction was utilized. Incorporated radioactivity (counts per minute, CPM) was quantified using standard liquid scintillation techniques. Compound IC50 (50%, inhibition of virus replication) was calculated using statistical software and regression analysis. A cellular uptake study was conducted for fluorescence conjugates 23 and 24 using a previously published procedure with minor modifications. All of the experiments were conducted in triplicate.

[5] = tested on: HIV-1 98USMSC5016 (C-Wild Type); assay: PBMC multi-round infection assay, clinical isolate 98USMSC5016; conditions: Human immunodeficiency virus 1
Protocol: as §2, §3

HIV-1 A-17 MDR (B-NNRTI) = assay: PBMC multi-round infection assay, resistant isolate A-17; conditions: Human immunodeficiency virus 1, PBMC
Protocol: as §2, §3

HIV-1 4755-5 MDR (B-MDR) = assay: PBMC multi-round infection assay, resistant isolate 4755-5; conditions: Human immunodeficiency virus 1, PBMC
Protocol: as §2, §3

[6] = Table 2, MTS, 50% effective concentration
[7] = read-out: (X4) EC50, Table 2, single-round infection assay
[8] = read-out: (R5) EC50, Table 2, single-round infection assay
[9] = read-out: (CA) EC50, Table 2, cell-associated transmission assay (IIIB)
[10] = Table 3, conjugates vs physical mixtures
[11] = Table 2, single-round infection assay, read-out: (X4) EC50
[12] = Table 3, viral entry inhibition assay, read-out: (X4) EC50
[13] = Table 2, single-round infection assay, read-out: (R5) EC50
[14] = Table 3, viral entry inhibition assay, read-out: (R5) EC50
[15] = read-out: (CA) EC50, Table 3, cell-to-cell transmission assay (IIIB)
[16] = read-out: (X4) EC50, Table 3, viral entry inhibition assay
[17] = read-out: (R5) EC50, Table 3, viral entry inhibition assay

| SMILES | EC50 (Cytotoxicity assay (MTS); [6]) [µM] | EC50 [1, 7] [µM] | EC50 [2, 8] [µM] | EC50 [3, 9] [µM] | further results |
| --- | --- | --- | --- | --- | --- |
| CCCCCCCCCCCCC(OC)C(=O)OC[C@H]1O[C@@H](n2cc(C)c(=O)[nH]c2=O)C[C@@H]1F (mixture of isomers) [Compound 13, (±)-3′-Fluoro-2′,3′-dideoxy-5′-O-(2-methoxyteradecanoyl)thymidine] | > 206 | 1 | 0.2 | > 206 | anti-HIV activity (in words) (HIV-1): significant anti-HIV activity at noncytotoxic concentrations |
| CCCCCCCCCCCCC(OC)C(=O)OC[C@H]1O[C@@H](n2cc(C)c(=O)[nH]c2=O)C[C@@H]1N=[N+]=[N-] (mixture of isomers) [Compound 14, (±)-3′-Azido-2′,3′-dideoxy-5′-O-(2-methoxyteradecanoyl)thymidine] | > 197 | 9.7 | 6.7 | > 197 |  |
| Cc1cn([C@H]2C[C@H](N=[N+]=[N-])[C@@H](CO)O2)c(=O)[nH]c1=O [AZT, 3′-azido-2′,3′-dideoxythymidine, reference compound] | > 375 |  |  | > 375 | EC50 (Cytotoxicity assay (MTS); [10]): > 374 µM; EC50 [1, 11]: 10.9 µM; EC50 [1, 12]: 10.9 µM; EC50 [2, 13]: 14.2 µM; EC50 [2, 14]: 14.2 µM; activity against cell-associated virus (in words) [3]: only inconsistently and moderately active; EC50 [3, 15]: > 374 µM |
| CCCCCCCCCCCCCCOCC1OC(n2cc(C)c(=O)[nH]c2=O)CC1F (stereo not shown) [Compound 3, 3′-Fluoro-2′,3′-dideoxy-5′-O-(tetradecanyl)thymidine] | 179 | 180 | 176 | > 227 | anti-HIV activity (in words) (HIV-1): significantly less potent than the corresponding ester derivatives |
| CCCCCCCCCCCCCCOCC1OC(n2cc(C)c(=O)[nH]c2=O)CC1N=[N+]=[N-] (stereo not shown) [Compound 4, 3′-Azido-2′,3′-dideoxy-5′-O-(tetradecanyl)thymidine] | 205 | 125 | 27.6 | > 216 | anti-HIV activity (in words) (HIV-1): significantly less potent than the corresponding ester derivatives |
| CCCCCCCCCCCCCC(=O)OC[C@H]1O[C@@H](n2cc(C)c(=O)[nH]c2=O)C[C@@H]1N=[N+]=[N-] [Compound 7] | > 629 | 3.1 | 5 | > 629 | EC50 (Cytotoxicity assay (MTS); [10]): > 629 µM; EC50 [1, 16]: 3.1 µM; EC50 [2, 17]: 5 µM; EC50 [3, 15]: > 629 µM |
| CCSCCCCCCCCCCCC(=O)OC[C@H]1O[C@@H](n2cc(C)c(=O)[nH]c2=O)C[C@@H]1N=[N+]=[N-] [Compound 9] | > 101 | 7.7 | 5.2 | 90.7 |  |
| CCCCCCCCCCCCCCC(=O)OC[C@H]1O[C@@H](n2cc(C)c(=O)[nH]c2=O)C[C@@H]1N=[N+]=[N-] [Compound 10] | > 611 | 17.9 | 4.5 | > 611 |  |
| Cc1cn([C@H]2C[C@H](F)[C@@H](COC(=O)CCCCCCCCCCCBr)O2)c(=O)[nH]c1=O [Compound 11] | > 198 | 1.8 | < 0.2 | > 198 |  |
| Cc1cn([C@H]2C[C@H](N=[N+]=[N-])[C@@H](COC(=O)CCCCCCCCCCCBr)O2)c(=O)[nH]c1=O [Compound 12] | > 190 | 14.8 | 4.6 | > 190 | EC50 (Cytotoxicity assay (MTS); [10]): > 190 µM; EC50 [1, 16]: 14.8 µM; EC50 [2, 17]: 4.6 µM; EC50 [3, 15]: > 190 µM |
| CCCCCSCCCCCCCC(=O)OC[C@H]1O[C@@H](n2cc(C)c(=O)[nH]c2=O)C[C@@H]1F [Compound 15] | > 64 | 11.4 | 4.4 | > 64 |  |
| CCCCCSCCCCCCCC(=O)OC[C@H]1O[C@@H](n2cc(C)c(=O)[nH]c2=O)C[C@@H]1N=[N+]=[N-] [Compound 16] | > 202 | 9.3 | 12.9 | > 202 |  |
| CCCCCCCCCCOCCC(=O)OC[C@H]1O[C@@H](n2cc(C)c(=O)[nH]c2=O)C[C@@H]1N=[N+]=[N-] [Compound 17] | > 209 | 6.7 | 2.1 | > 209 |  |
| CCCCCOCCCCCCCC(=O)OC[C@H]1O[C@@H](n2cc(C)c(=O)[nH]c2=O)C[C@@H]1N=[N+]=[N-] [Compound 18] | > 209 | 4.8 | 6.1 | > 209 |  |
| Cc1cn(C2CC(F)C(COC(=O)CCCCCCCCCCCN)O2)c(=O)[nH]c1=O (stereo not shown) [Compound 22, 3′-Fluoro-2′,3′-dideoxy-5′-O-(12-aminododecanoyl)thymidine] | > 226 | 3.4 | 1.6 | > 227 | anti-HIV activity (in words) (HIV-1): comparable to other fatty acyl derivatives of FLT |
| Cc1cn([C@H]2C[C@H](F)[C@@H](CO)O2)c(=O)[nH]c1=O [FLT, 3′-fluoro-2′,3′-dideoxythymidine] | > 410 |  |  | > 410 | EC50 (Cytotoxicity assay (MTS); [10]): > 410 µM; EC50 [1, 11]: 0.8 µM; EC50 [1, 12]: 0.8 µM; EC50 [2, 13]: 0.4 µM; EC50 [2, 14]: 0.4 µM; activity against cell-associated virus (in words) [3]: only inconsistently and moderately active; also recorded: not active at all; EC50 [3, 15]: > 410 µM; IC50 [4]: 0.002 µM; IC90 [4]: 0.0204 µM; IC50 [5]: 0.002 µM; IC90 [5]: 0.0123 µM; IC50 (HIV-1 A-17 MDR (B-NNRTI)): 0.026 µM; IC90 (HIV-1 A-17 MDR (B-NNRTI)): 0.0872 µM; IC50 (HIV-1 4755-5 MDR (B-MDR)): 0.107 µM; IC90 (HIV-1 4755-5 MDR (B-MDR)): 1.06 µM |
